Data as given in PubChem BioAssay (NCI).
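Values below derive from 48-hour exposures of cells grown in 96-well plates, with endpoints linearly interpolated between the two concentrations bracketing the appropriate inhibition level. The concentration for full growth arrest is given as TGI.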

What was measured:
Assay in all cases: growth of human tumour cells (NCI), 48 h
KM12 colon = test system: KM12 colon
CAKI-1 renal = test system: CAKI-1 renal
DU-145 prostate = test system: DU-145 prostate
NCI/ADR-RES ovarian = test system: NCI/ADR-RES ovarian
RXF 393 renal = test system: RXF 393 renal
EKVX NSCLC = test system: EKVX NSCLC
MDA-N = test system: MDA-N
U251 CNS = test system: U251 CNS
SF-295 CNS = test system: SF-295 CNS
SK-MEL-28 melanoma = test system: SK-MEL-28 melanoma
TK-10 renal = test system: TK-10 renal
COLO 205 colon = test system: COLO 205 colon
PC-3 prostate = test system: PC-3 prostate
HOP-92 NSCLC = test system: HOP-92 NSCLC
MDA-MB-435 = test system: MDA-MB-435
HCT-116 colon = test system: HCT-116 colon
HOP-62 NSCLC = test system: HOP-62 NSCLC
OVCAR-4 ovarian = test system: OVCAR-4 ovarian
SK-MEL-5 melanoma = test system: SK-MEL-5 melanoma
SN12C renal = test system: SN12C renal
LOX IMVI melanoma = test system: LOX IMVI melanoma
SK-MEL-2 melanoma = test system: SK-MEL-2 melanoma
A498 renal = test system: A498 renal
SW-620 colon = test system: SW-620 colon
T-47D breast = test system: T-47D breast
M14 melanoma = test system: M14 melanoma
SNB-19 CNS = test system: SNB-19 CNS
UO-31 renal = test system: UO-31 renal
SNB-75 CNS = test system: SNB-75 CNS
NCI-H226 lung = test system: NCI-H226 lung
UACC-62 melanoma = test system: UACC-62 melanoma
RPMI-8226 leukemia = test system: RPMI-8226 leukemia
HCC-2998 colon = test system: HCC-2998 colon
ACHN renal = test system: ACHN renal
SF-268 CNS = test system: SF-268 CNS
HCT-15 colon = test system: HCT-15 colon
OVCAR-5 ovarian = test system: OVCAR-5 ovarian
MDA-MB-231 breast = test system: MDA-MB-231 breast
OVCAR-3 ovarian = test system: OVCAR-3 ovarian
CCRF-CEM leukemia = test system: CCRF-CEM leukemia
SF-539 CNS = test system: SF-539 CNS
786-0 renal = test system: 786-0 renal
SK-OV-3 ovarian = test system: SK-OV-3 ovarian
A549 NSCLC = test system: A549 NSCLC
MCF7 breast = test system: MCF7 breast
UACC-257 melanoma = test system: UACC-257 melanoma
K-562 leukemia = test system: K-562 leukemia
HS 578T breast = test system: HS 578T breast
SR leukemia = test system: SR leukemia
BT-549 breast = test system: BT-549 breast
NCI-H23 lung = test system: NCI-H23 lung
HT29 colon = test system: HT29 colon
MALME-3M melanoma = test system: MALME-3M melanoma
IGROV1 ovarian = test system: IGROV1 ovarian
NCI-H460 lung = test system: NCI-H460 lung
NCI-H522 lung = test system: NCI-H522 lung
MOLT-4 leukemia = test system: MOLT-4 leukemia
OVCAR-8 ovarian = test system: OVCAR-8 ovarian

**Q.** `Nc1ncnc2c1ncn2CC(OCP(=O)(O)O)Oc1ccccc1` (stereo not drawn) was tested. Which TGI (KM12 colon) did it give?
**A.** The TGI was greater than 100 µM.

**Q.** And the TGI (CAKI-1 renal)?
**A.** The TGI was greater than 100 µM.

**Q.** What about the TGI (DU-145 prostate) of the same compound?
**A.** Its TGI is greater than 100 µM.

**Q.** And the TGI (NCI/ADR-RES ovarian)?
**A.** The TGI was greater than 100 µM.

**Q.** What about the TGI (RXF 393 renal) of the same compound?
**A.** Its TGI is greater than 100 µM.

**Q.** What about the TGI (EKVX NSCLC) of the same compound?
**A.** The TGI was greater than 100 µM.

**Q.** What about the TGI (MDA-N) of the same compound?
**A.** The TGI was greater than 100 µM.

**Q.** And the TGI (U251 CNS)?
**A.** Its TGI is greater than 100 µM.

**Q.** And the TGI (SF-295 CNS)?
**A.** The TGI was greater than 100 µM.

**Q.** And the TGI (SK-MEL-28 melanoma)?
**A.** The TGI was greater than 100 µM.

**Q.** What about the TGI (TK-10 renal) of the same compound?
**A.** The TGI was greater than 100 µM.

**Q.** And the TGI (COLO 205 colon)?
**A.** The TGI was greater than 100 µM.

**Q.** What about the TGI (PC-3 prostate) of the same compound?
**A.** The TGI was greater than 100 µM.

**Q.** What about the TGI (HOP-92 NSCLC) of the same compound?
**A.** Its TGI is greater than 100 µM.

**Q.** And the TGI (MDA-MB-435)?
**A.** Its TGI is greater than 100 µM.

**Q.** And the TGI (HCT-116 colon)?
**A.** Its TGI is greater than 100 µM.

**Q.** And the TGI (HOP-62 NSCLC)?
**A.** Its TGI is greater than 100 µM.

**Q.** And the TGI (OVCAR-4 ovarian)?
**A.** The TGI was greater than 100 µM.

**Q.** And the TGI (SK-MEL-5 melanoma)?
**A.** Its TGI is greater than 100 µM.

**Q.** And the TGI (SN12C renal)?
**A.** Its TGI is greater than 100 µM.

**Q.** What about the TGI (LOX IMVI melanoma) of the same compound?
**A.** Its TGI is greater than 100 µM.

**Q.** What about the TGI (SK-MEL-2 melanoma) of the same compound?
**A.** Its TGI is greater than 100 µM.

**Q.** And the TGI (A498 renal)?
**A.** The TGI was greater than 100 µM.

**Q.** And the TGI (SW-620 colon)?
**A.** The TGI was greater than 100 µM.

**Q.** And the TGI (T-47D breast)?
**A.** Its TGI is greater than 100 µM.

**Q.** And the TGI (M14 melanoma)?
**A.** Its TGI is greater than 100 µM.

**Q.** What about the TGI (SNB-19 CNS) of the same compound?
**A.** Its TGI is greater than 100 µM.

**Q.** And the TGI (UO-31 renal)?
**A.** The TGI was greater than 100 µM.

**Q.** What about the TGI (SNB-75 CNS) of the same compound?
**A.** The TGI was greater than 100 µM.

**Q.** What about the TGI (NCI-H226 lung) of the same compound?
**A.** The TGI was greater than 100 µM.

**Q.** And the TGI (UACC-62 melanoma)?
**A.** Its TGI is greater than 100 µM.

**Q.** And the TGI (RPMI-8226 leukemia)?
**A.** Its TGI is greater than 100 µM.

**Q.** And the TGI (HCC-2998 colon)?
**A.** The TGI was greater than 100 µM.

**Q.** What about the TGI (ACHN renal) of the same compound?
**A.** The TGI was greater than 100 µM.

**Q.** What about the TGI (SF-268 CNS) of the same compound?
**A.** The TGI was greater than 100 µM.

**Q.** And the TGI (HCT-15 colon)?
**A.** The TGI was greater than 100 µM.

**Q.** And the TGI (OVCAR-5 ovarian)?
**A.** The TGI was greater than 100 µM.

**Q.** And the TGI (MDA-MB-231 breast)?
**A.** Its TGI is greater than 100 µM.

**Q.** And the TGI (OVCAR-3 ovarian)?
**A.** The TGI was greater than 100 µM.

**Q.** And the TGI (CCRF-CEM leukemia)?
**A.** The TGI was greater than 100 µM.

**Q.** And the TGI (SF-539 CNS)?
**A.** Its TGI is greater than 100 µM.

**Q.** And the TGI (786-0 renal)?
**A.** The TGI was greater than 100 µM.

**Q.** And the TGI (SK-OV-3 ovarian)?
**A.** Its TGI is greater than 100 µM.

**Q.** What about the TGI (A549 NSCLC) of the same compound?
**A.** The TGI was greater than 100 µM.

**Q.** What about the TGI (MCF7 breast) of the same compound?
**A.** The TGI was greater than 100 µM.

**Q.** And the TGI (UACC-257 melanoma)?
**A.** Its TGI is greater than 100 µM.

**Q.** And the TGI (K-562 leukemia)?
**A.** The TGI was greater than 100 µM.

**Q.** What about the TGI (HS 578T breast) of the same compound?
**A.** The TGI was greater than 100 µM.

**Q.** What does the source list for `CNC(Cc1ccccc1)c1cccc(OC)c1O` (stereo not drawn)?
**A.** TGI (SR leukemia): > 100 µM; TGI (KM12 colon): > 100 µM; TGI (BT-549 breast): > 100 µM; TGI (NCI-H23 lung): > 100 µM; TGI (CAKI-1 renal): > 100 µM; TGI (DU-145 prostate): > 100 µM; TGI (NCI/ADR-RES ovarian): > 100 µM; TGI (RXF 393 renal): > 100 µM; TGI (EKVX NSCLC): > 100 µM; TGI (MDA-N): > 100 µM; TGI (U251 CNS): > 100 µM; TGI (SF-295 CNS): > 100 µM; TGI (SK-MEL-28 melanoma): > 100 µM; TGI (TK-10 renal): > 100 µM; TGI (PC-3 prostate): > 100 µM; TGI (HOP-92 NSCLC): > 100 µM; TGI (MDA-MB-435): > 100 µM; TGI (HCT-116 colon): > 100 µM; TGI (HOP-62 NSCLC): > 100 µM; TGI (OVCAR-4 ovarian): > 100 µM; TGI (SK-MEL-5 melanoma): > 100 µM; TGI (SN12C renal): > 100 µM; TGI (LOX IMVI melanoma): > 100 µM; TGI (SK-MEL-2 melanoma): > 100 µM; TGI (A498 renal): > 100 µM; TGI (HT29 colon): > 100 µM; TGI (MALME-3M melanoma): > 100 µM; TGI (SW-620 colon): > 100 µM; TGI (IGROV1 ovarian): > 100 µM; TGI (T-47D breast): 60.4 µM; TGI (M14 melanoma): > 100 µM; TGI (SNB-19 CNS): > 100 µM; TGI (UO-31 renal): > 100 µM; TGI (NCI-H226 lung): > 100 µM; TGI (NCI-H460 lung): > 100 µM; TGI (UACC-62 melanoma): > 100 µM; TGI (NCI-H522 lung): > 100 µM; TGI (ACHN renal): > 100 µM; TGI (SF-268 CNS): > 100 µM; TGI (HCT-15 colon): > 100 µM; TGI (OVCAR-5 ovarian): > 100 µM; TGI (MDA-MB-231 breast): > 100 µM; TGI (OVCAR-3 ovarian): > 100 µM; TGI (786-0 renal): > 100 µM; TGI (MOLT-4 leukemia): > 100 µM; TGI (A549 NSCLC): > 100 µM; TGI (OVCAR-8 ovarian): > 100 µM; TGI (UACC-257 melanoma): 53.9 µM; TGI (K-562 leukemia): > 100 µM; TGI (HS 578T breast): > 100 µM
